# According to ChEMBL document CHEMBL4706752 (ACS Med Chem Lett, 2021):
# Columns and labels:
# Mus musculus [1] = experiment: Antiinflammatory activity in DBA/1J mouse model of collagen-induced arthritis assessed as reduction in clinical score at 5 mg/kg, po dosed twice daily for 21 days measured on day 51; assay type: functional; conditions: 504 h, time 21 day
# Mus musculus [2] = experiment: Antiinflammatory activity in DBA/1J mouse model of collagen-induced arthritis assessed as reduction in clinical score at 20 mg/kg, po dosed twice daily for 21 days measured on day 51; assay type: functional; conditions: 504 h, time 21 day
# [3] = AUC in Balb/c mouse at 2 mg/kg, iv; assay type: ADME, organism-based; design: dose 2 mg/kg; conditions: in vivo
# [4] = Tmax in dog at 2 mg/kg, po; assay type: ADME, organism-based, Canis lupus familiaris; conditions: in vivo
# [5] = Decrease in IL-6 gene expression in C57BL/6 mouse model of IL-23 induced acanthosis model of psoriasis at 10 mg/kg, po BID for 10 days by RT-PCR analysis; assay type: functional; conditions: C57BL/6, po, 240 h, time 10 day
# Cytochrome P450 2C19 = Cytochrome P450 2C19 (Homo sapiens, UniProt P33261); experiment: Inhibition of CYP2C19 (unknown origin); assay type: ADME
# [6] = Tmax in Balb/c mouse at 4 mg/kg, po; assay type: ADME, organism-based; conditions: in vivo
# Mus musculus [7] = experiment: Suppression of ear thickness in C57BL/6 mouse model of IL-23 induced acanthosis model of psoriasis at 5 to 20 mg/kg, po BID for 10 days measured every other day; assay type: functional, organism-based; conditions: dose 5-20 mg/kg, time 10.0 day
# Cytochrome P450 2C9 = Cytochrome P450 2C9 (Homo sapiens, UniProt P11712); experiment: Inhibition of CYP2C9 (unknown origin); assay type: ADME
# [8] = Clearance in Sprague-Dawley rat at 2 mg/kg, iv; assay type: ADME, organism-based; conditions: in vivo
# [9] = Half life in cynomolgus monkey at 1 mg/kg, iv; assay type: ADME, organism-based, Macaca fascicularis; conditions: in vivo
# [10] = target: T1, Nuclear receptor ROR-alpha (Homo sapiens, UniProt P35398); experiment: Inhibition of RORalpha (unknown origin)
# T1 sequence (P35398 whole entry): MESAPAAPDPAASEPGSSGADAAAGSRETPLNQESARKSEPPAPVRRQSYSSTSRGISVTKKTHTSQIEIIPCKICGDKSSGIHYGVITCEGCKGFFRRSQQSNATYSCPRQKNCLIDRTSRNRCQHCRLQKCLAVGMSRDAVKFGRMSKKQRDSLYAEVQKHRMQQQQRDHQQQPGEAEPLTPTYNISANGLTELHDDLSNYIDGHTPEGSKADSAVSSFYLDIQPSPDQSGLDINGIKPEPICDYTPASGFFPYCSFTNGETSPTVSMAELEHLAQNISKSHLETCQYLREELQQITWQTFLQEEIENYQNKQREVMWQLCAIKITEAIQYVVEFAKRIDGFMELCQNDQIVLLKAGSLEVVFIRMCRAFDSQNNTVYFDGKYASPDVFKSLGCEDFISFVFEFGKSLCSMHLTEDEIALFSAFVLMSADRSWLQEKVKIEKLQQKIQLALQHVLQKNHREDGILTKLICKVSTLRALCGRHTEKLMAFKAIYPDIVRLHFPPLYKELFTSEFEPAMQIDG
# [11] = Metabolic stability in human liver microsomes assessed as compound remaining after 10 mins; assay type: ADME, Microsome; conditions: read-out: Stabilty
# [12] = Unbound volume of distribution at steady state in Sprague-Dawley rat at 2 mg/kg, iv; assay type: ADME, organism-based; conditions: in vivo
# [13] = target: T2, Oxysterols receptor LXR-beta (Homo sapiens, UniProt P55055); experiment: Inhibition of LXRbeta (unknown origin)
# T2 sequence (P55055 whole entry): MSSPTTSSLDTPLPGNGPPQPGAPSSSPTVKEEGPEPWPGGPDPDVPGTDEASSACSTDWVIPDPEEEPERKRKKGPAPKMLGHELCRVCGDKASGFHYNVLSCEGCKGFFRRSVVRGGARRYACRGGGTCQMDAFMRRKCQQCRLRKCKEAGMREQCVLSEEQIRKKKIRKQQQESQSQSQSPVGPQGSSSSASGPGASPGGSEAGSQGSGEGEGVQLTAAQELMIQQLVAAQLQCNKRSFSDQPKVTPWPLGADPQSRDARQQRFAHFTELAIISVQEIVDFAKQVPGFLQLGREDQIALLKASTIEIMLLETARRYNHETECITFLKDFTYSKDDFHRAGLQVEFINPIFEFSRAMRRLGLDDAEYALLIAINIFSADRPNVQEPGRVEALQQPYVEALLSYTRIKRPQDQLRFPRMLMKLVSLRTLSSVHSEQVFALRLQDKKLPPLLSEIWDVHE
# [14] = Decrease in IL-17a gene expression in C57BL/6 mouse model of IL-23 induced acanthosis model of psoriasis at 5 mg/kg, po BID for 10 days by RT-PCR analysis; assay type: functional; conditions: C57BL/6, po, 240 h, time 10 day
# Mus musculus [15] = experiment: Antiinflammatory activity in DBA/1J mouse model of collagen-induced arthritis assessed as reduction in plasma IL-6 level at 10 mg/kg, po dosed twice daily for 21 days (reference value: 80 +/- 6 pg/ml); assay type: functional; conditions: time 21 day
# Mus musculus [16] = experiment: Antiinflammatory activity in DBA/1J mouse model of collagen-induced arthritis assessed as reduction in histological score at 10 mg/kg, po dosed twice daily for 21 days; assay type: functional; conditions: 504 h, time 21 day
# [17] = Tmax in cynomolgus monkey at 2 mg/kg, po; assay type: ADME, organism-based, Macaca fascicularis; conditions: in vivo
# [18] = Unbound volume of distribution at steady state in dog at 1 mg/kg, iv; assay type: ADME, organism-based, Canis lupus familiaris; conditions: in vivo
# [19] = Cmax in Sprague-Dawley rat at 4 mg/kg, po; assay type: ADME, organism-based; design: route oral, dose 4 mg/kg; conditions: in vivo
# [20] = Apparent permeability across apical to basolateral membrane in human Caco2 cells; assay type: ADME, cell-based; conditions: Caco-2
# [21] = Decrease in IL-6 gene expression in C57BL/6 mouse model of IL-23 induced acanthosis model of psoriasis at 5 mg/kg, po BID for 10 days by RT-PCR analysis; assay type: functional; conditions: C57BL/6, po, 240 h, time 10 day
# Mus musculus [22] = experiment: Antiinflammatory activity in DBA/1J mouse model of collagen-induced arthritis assessed as reduction in histological score at 20 mg/kg, po dosed twice daily for 21 days; assay type: functional; conditions: 504 h, time 21 day
# [23] = Metabolic stability in mouse liver microsomes assessed as compound remaining after 10 mins; assay type: ADME, Microsome; conditions: read-out: Stabilty
# [24] = AUC in Sprague-Dawley rat at 4 mg/kg, po; assay type: ADME, organism-based; design: dose 4 mg/kg; conditions: in vivo
# [25] = target: T3, Oxysterols receptor LXR-alpha (Homo sapiens, UniProt Q13133); experiment: Inhibition of LXRalpha (unknown origin)
# T3 sequence (Q13133 whole entry): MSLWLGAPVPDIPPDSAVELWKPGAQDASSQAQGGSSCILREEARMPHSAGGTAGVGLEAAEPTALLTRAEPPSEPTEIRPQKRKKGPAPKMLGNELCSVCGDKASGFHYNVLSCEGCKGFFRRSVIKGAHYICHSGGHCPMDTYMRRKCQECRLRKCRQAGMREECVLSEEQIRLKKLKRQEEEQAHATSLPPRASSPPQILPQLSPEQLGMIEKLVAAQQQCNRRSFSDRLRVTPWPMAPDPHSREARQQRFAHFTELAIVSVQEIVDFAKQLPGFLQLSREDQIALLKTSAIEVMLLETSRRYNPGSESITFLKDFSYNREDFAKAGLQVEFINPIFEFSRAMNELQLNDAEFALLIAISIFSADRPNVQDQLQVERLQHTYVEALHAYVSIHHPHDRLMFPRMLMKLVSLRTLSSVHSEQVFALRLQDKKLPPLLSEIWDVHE
# Cytochrome P450 2C19, sequence (P33261 whole entry): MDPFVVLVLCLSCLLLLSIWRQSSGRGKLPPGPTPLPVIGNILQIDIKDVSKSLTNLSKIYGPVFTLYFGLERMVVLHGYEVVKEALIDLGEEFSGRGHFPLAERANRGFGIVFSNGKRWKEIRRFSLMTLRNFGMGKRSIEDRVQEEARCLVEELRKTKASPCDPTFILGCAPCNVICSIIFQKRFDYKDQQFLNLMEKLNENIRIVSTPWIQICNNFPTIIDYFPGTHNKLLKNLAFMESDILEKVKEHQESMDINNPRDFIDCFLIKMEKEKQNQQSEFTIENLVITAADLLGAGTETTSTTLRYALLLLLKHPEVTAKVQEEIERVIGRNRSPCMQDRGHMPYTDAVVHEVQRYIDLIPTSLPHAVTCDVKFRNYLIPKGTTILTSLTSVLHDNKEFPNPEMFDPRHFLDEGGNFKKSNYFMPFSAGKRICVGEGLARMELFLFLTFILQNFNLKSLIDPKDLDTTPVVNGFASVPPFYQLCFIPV
# Cytochrome P450 2C9, sequence (P11712 whole entry): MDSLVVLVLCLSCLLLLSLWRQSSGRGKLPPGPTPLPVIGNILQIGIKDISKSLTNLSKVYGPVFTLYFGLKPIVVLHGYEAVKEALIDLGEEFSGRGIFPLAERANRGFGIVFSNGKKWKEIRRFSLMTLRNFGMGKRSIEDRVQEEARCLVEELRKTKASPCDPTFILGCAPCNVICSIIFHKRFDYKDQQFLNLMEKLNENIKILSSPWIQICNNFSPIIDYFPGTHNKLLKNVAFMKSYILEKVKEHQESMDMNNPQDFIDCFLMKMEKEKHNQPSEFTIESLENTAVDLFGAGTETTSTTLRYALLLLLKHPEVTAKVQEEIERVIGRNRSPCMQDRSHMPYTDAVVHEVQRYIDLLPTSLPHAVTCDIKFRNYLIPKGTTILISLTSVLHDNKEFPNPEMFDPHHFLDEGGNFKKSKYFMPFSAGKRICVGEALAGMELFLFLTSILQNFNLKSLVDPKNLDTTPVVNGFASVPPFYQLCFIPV
compound,measurement,setting,value
C[C@@](O)(CS(C)(=O)=O)C(=O)N[C@@H]1CC[C@@]2(S(=O)(=O)c3ccc(F)cc3)c3ccc(C(F)(C(F)(F)F)C(F)(F)F)nc3CC[C@@H]12,inhibition in vivo at 5 mg/kg,Mus musculus [1],48%
same,inhibition in vivo at 20 mg/kg,Mus musculus [2],78%
same,AUC,[3],22.7 µM·h
same,Tmax,[4],7 h
same,inhibition in vivo at 10 mg/kg,[5],82.3%
same,IC50,Cytochrome P450 2C19,19 µM
same,Tmax,[6],2 h
same,Activity,Mus musculus [7],Dose-dependent effect
same,IC50,Cytochrome P450 2C9,> 20 µM
same,clearance,[8],1.9 mL/min/kg
same,half-life,[9],720 min
same,EC50,[10],> 10 µM
same,remaining at 10 min,[11],89%
same,fVdss,[12],2.5 L/kg
same,EC50,[13],> 10 µM
same,inhibition in vivo at 5 mg/kg,[14],57.5%
same,Activity,Mus musculus [15],19 pg/mL
same,inhibition in vivo at 10 mg/kg,Mus musculus [16],60%
same,Tmax,[17],7 h
same,fVdss,[18],1.3 L/kg
same,Cmax,[19],1600 nM
same,Papp A→B,[20],11 ×10⁻⁶ cm/s
same,inhibition in vivo at 5 mg/kg,[21],55.8%
same,inhibition in vivo at 20 mg/kg,Mus musculus [22],55%
same,remaining at 10 min,[23],98%
same,AUC,[24],44.9 µM·h
same,EC50,[25],> 10 µM
